Assay results: patent US20250314668A1, “DNAZYMES FOR SENSING AND IMAGING TARGET MOLECULES” (BOARD OF REGENTS, THE UNIVERSITY OF TEXAS SYSTEM, priority 2024, published 2025)
Like-named read-outs stand apart in the source and are kept apart here. In the oligonucleotide strings, read from the 5' end, every base follows the letter of its sugar. An asterisk marks phosphorothioate; unmarked linkages are phosphodiester. Other units and linkages are bracketed, terminal groups are in braces. A string of capitals states the bases alone. {3IABkFQ} = Iowa Black FQ quencher; d = 2'-deoxy (DNA); m = 2'-O-methyl

Legend:
[1] = Point mutation gel cleavage assay of Fe^3+ B12 DNAzyme and substrate (heat map); format: biochemical; settings: 100 μM FeCl3, pH 5.5, overnight; for activity of mutated substrate strand normalized to original Fe^3+ B12 Substrate: original DNAzyme strand
Description: (§1) FIG. 5 depicts a heat map illustrating the impact of point mutations within the catalytic core of the Fe^3+ B12 DNAzyme, against the unaltered Fe^3+ B12 substrate strand for comparative analysis with 5 mM Bis Tris, 40 mM Sodium Acetate, 200 mM NaCl at pH 5.5 with 100 μM FeCl3. The reaction occurred overnight at room temperature and analyzed by polyacrylamide gel electrophoresis.
as §1, with “FIG. 6” for “FIG. 5”, “B12 Substrate strand,” for “B12 DNAzyme,”, “B12 DNAzyme” for “B12 substrate”
(§2) Point mutations were intentionally introduced into the Fe^3+ B12 DNAzyme catalytic core, and subsequently assessed in comparison to the unaltered Fe^3+ B12 substrate strand under controlled reaction conditions. These conditions included a solution comprising 5 mM Bis Tris, 40 mM Sodium Acetate, 200 mM NaCl at pH 5.5, with concentrations of 250 nM for both the mutated B12 DNAzyme Strand and the FAM-labeled Original B12 Substrate Strand, along with 100 μM FeCl3. The reaction proceeded overnight at ambient temperature, followed by analysis via electrophoresis on a 15% denaturing gel.
as §2, with “Fe^3+ B12 Substrate Strand's catalytic core,” for “Fe^3+ B12 DNAzyme catalytic core,”, “Fe^3+ B12 DNAzyme strand under” for “Fe^3+ B12 substrate strand under”, “both the Original B12 DNAzyme” for “both the mutated B12 DNAzyme”, “the FAM-labeled mutated B12 Substrate” for “the FAM-labeled Original B12 Substrate”

cultured cell lines = test: Iron redox changes in cultured cell lines with ferroptosis inducers and NCOA4 regulators; format: cell-based
[2] = Copper sensor signal turn-on and background in solution (inactive controls, upgraded version); format: biochemical; settings: for activity of inactive sequences to fluorophore labeled substrates: screening of Cu^2+ DNAzyme inactive sequences
Description: FIGS. 14A-14B depict fluorescence resulting of upgraded Cu DNAzyme. The concentration of Cu^2+ is 8 μM, the concentration of ascorbate is 50 μM.
Since the DNAzyme sensors are exposed to various nucleic acid enzymes in biological samples during imaging, it is common to have some extent of sensor degradation and dehybridization, which can increase the background signal. Although the study applied modifications to the end of DNA strands to minimize the exonuclease activities, the background could not be fully removed. Thus, it is critical to estimate the background signal levels for accurate background subtraction and more precise signal quantification.
In this iE design, the catalytic core sequence are converted into complement sequence of the original active sequences.

HepG2 or Hela cells = test: Simultaneous imaging of labile Fe^2+ and Fe^3+ in living cells treated with Tf or DFO; format: cell-based; settings: treated cells
Description: For delivery of DNAzyme sensors using PEI (66, 67), the corresponding Fe(II)-H5-ErS, Fe(II)-H5-iErS, Fe(III)-B12-ErS, and Fe(III)-B12-iErS (final concentration of 10 μM) were mixed in the Fe^2+ buffer and Fe^3+ buffer separately. The mixtures were annealed at 95° C. for 5 min and stored at room temperature to allow full hybridization. PEI (25 kDa) was dissolved in water at 1 mg/ml. […] The normal cell medium was replaced with iron-deficient medium before the PEI-ErS or PEI-iErS was added to the cells grown in the plates.
After incubating HepG2 cells with PEI-ErS or PEI-iErS complex for 4 hours, cells were washed with phosphate-buffered saline (PBS) twice to remove excess amounts of complexes in medium. Then, the cells were stained by Hoechst 33258 for 15 min. Images were obtained using a Zeiss LSM 880 confocal microscope at 63× oil objective lens with numerical aperture 1.40 and immersion medium Immersol 518 F (Zeiss) at the UIUC IGB Core Facilities. Florescence emission of Hoechst 33258 was measured over 450 to 500 nm with excitation at 401 nm. Fe(II)-H5 was excited by 488 nm and measured over 500 to 550 nm, and Fe(III)-B12 was excited at 633 nm and measured over 640 to 700 nm. A laser power of 67% and pinhole size of 1 […] (AU) were used for the cellular images. Acquired images were analyzed by ImageJ using JACoP (88, 89). No background subtraction, Z-stacks, Gaussian blur filter, or change thresholds were performed for visualizing the figures. For cell fluorescence quantification, the study quantified the average fluorescence signals intensity in five cells (for TurboFect transfected cells) or five LysoTracker-labeled regions in different cells (for PEI transfected cells), per picture and three pictures per group with Image J (88), for the statistical comparison between groups.
Simultaneous imaging of labile Fe^2+ and Fe^3+ in living cells: HepG2 or Hela cells were cultured in glass-bottom dishes until about 70% confluence. The cells were pretreated with iron-deficient MEM containing either 100 μM DFO, 100 μM ferric ammonium citrate, […] holo-Tf, or 50 μM Tf for 4 hours, and then, the medium was replaced with an iron-deficient MEM containing PEI-ErS or PEI-iErS complexes or Opti-MEM containing 1 μl of TurboFect transfection reagent as described above for 4 hours. Before imaging, the cells were stained by LysoTracker Red and Hoechst 33258 for 15 min. After washing with PBS, the cells were incubated in iron-deficient MEM or regular DMEM, respectively, during the imaging.
Data processing and statistical analysis: To have a direct comparison of the iron amount between groups, the background signals were normalized by subtracting the fluorescence signals in iErS groups from the ErS groups (F-F0). No Z-stacks or change thresholds were used for statistical analysis. Graphs were plotted with GraphPad (GraphPad Software Inc.) or Origin (OriginLabs Corporation) and correspond to a single experiment. Bars represent means±SEM. Two-tailed distribution and two-sample equal variance t test were used for analyzing significance. Dixon's Q tests were performed to identify and exclude outliners. *P<0.05, **P<0.01, and ***P <0.001. […] The presented data described the quantification from single representative replicates from those biological replicates.

SH-SY5Y cells = test: Fluorescence imaging of Cu^+ and Cu^2+ in live SH-SY5Y cells (PDTC, BCS, Aβ40); format: cell-based, human
[3] = PAGE gel activity assays of Fe^3+ B12 DNAzyme (cleavage site, truncation, pH, buffer, mutation combinations, selectivity); format: biochemical; settings: presence of Fe^3+
Description: RNA Cleavage Dependence of Fe^2+ H5 and Fe^3+ B12 DNAzymes: To investigate the Fe^2+ H5 and Fe^3+ B12 DNAzymes, various cleavage site modifications were incorporated into the substrate strands. The original Fe^2+ H5 DNAzyme was combined with Fe^2+ H5 substrate strands containing either a 2′-hydroxyl (2′OH), 2′-hydrogen (2′H), or 2′O-methyl (2′OMe) at the cleavage site. The original Fe^2+ H5 DNAzyme cleaves the Fe^2+ H5 substrate strand containing 2′OH at the cleavage site in the presence of Fe^2+ under anaerobic conditions. […] Similarly, the original Fe^3+ B12 DNAzyme was combined with Fe^3+ B12 substrate strands containing either 2′OH, 2′H, or 2′OMe at the cleavage site. The original Fe^3+ B12 DNAzyme cleaves the Fe^3+ B12 substrate strand containing 2′OH at the cleavage site in the presence of Fe^3+. […]
Truncations of Fe^2+ H5 and Fe^3+ B12 DNAzymes' Binding Arms: To further investigate the Fe^2+ H5 and Fe^3+ B12 DNAzymes, the DNAzymes were truncated at the 5′ and 3′ ends and tested using the FAM-labeled original substrate strand through activity assays assessed by PAGE gel. […]
Similarly, the pH dependency of Fe^3+ B12 was tested across a range of pH 4.0 to 6.0 with 100 μM FeCl3. […] Fluorescence intensity was monitored over time using a 5′ Alexa Fluor™ 647-labeled substrate and a 3′ Iowa Black™ RQ quencher-labeled DNAzyme at an enzyme-to-substrate ratio of 1:1. […]

For “Fe^3+ B12 Substrate C15A (CTCTATTAGGGAGAATCGCATGCCGC; listed as DNA, chemistry not fully specified)”, the “activity of mutated substrate strand normalized to original Fe^3+ B12 Substrate” value [1] was “heightened activity”.

In the case of `[Cl-].[Cl-].[Co+2]` [CoCl2], the “Fe^3+/Fe^2+ ratio (Fe redox) with elevation of NCOA4” value (cultured cell lines) is reported as “increase”.

With “Cu2 iE polyT: inactive enzyme strand (TTTCGCCATCTTCTTTTTTTTATAGTGACT; DNA, backbone not given here; further chemistry not fully specified)” the “activity of inactive sequences to fluorophore labeled substrates” value [2] was “minimum activity”.

In the case of “Cu2 iE complement: inactive enzyme strand (TTTCGCCATCTTCTGGTCCTTATAGTGACT; DNA, backbone not given here; further chemistry not fully specified)”, the “activity of inactive sequences to fluorophore labeled substrates” value [2] is reported as “minimum activity”.

For `CC(=O)N(O)CCCCCNC(=O)CCC(=O)N(O)CCCCCNC(=O)CCC(=O)N(O)CCCCCN` [DFO, deferoxamine, reference compound], the “decrease of the Fe^3+/Fe^2+ ratio” value (HepG2 or Hela cells) was 2.4 fold.

In the case of “Fe^3+ B12 DNAzyme C20T (GCGGCATGCGCGTTTGCGGTACCTAAACGCTCCTAATAGAG; DNA, backbone not given here)”, the “activity of mutated DNAzyme strand normalized to original Fe^3+ B12 DNAzyme” value ([1]; FAM-labeled original substrate) is reported as “heightened activity”.

In the case of `COC(=O)CNC(=O)C(=O)OC` [DMOG], the “Fe^3+/Fe^2+ ratio (Fe redox) with elevation of NCOA4” value (cultured cell lines; cells incubated with NCOA4 stimulator) is reported as “increase”.

For `S=C(S)N1CCCC1` [PDTC, pyrrolidine dithiocarba-mate], the “fluorescence signal of both Cu^+ and Cu^2+ sensor” value (SH-SY5Y cells; 50 PM PDTC) was “significant increase” and the “fluorescence signal of both Cu^+ and Cu^2+ sensor” value (SH-SY5Y cells; addition of PDTC with Cu^2+, dose-dependent manner) was “increased”.

In the case of “Fe^3+ B12 Substrate A14G (CTCTATTAGGGAGGCTCGCATGCCGC; listed as DNA, chemistry not fully specified)”, the “activity of mutated substrate strand normalized to original Fe^3+ B12 Substrate” value [1] is reported as “heightened activity”.

For “Fe^3+ B12 Original Substrate (2′OMe) (dCdTdCdTdAdTdTdAmGdGdGdAdGdAdCdTdCdGdCdAdTdGdCdCdGdC)”, the “cleavage by the original Fe^3+ B12 DNAzyme” value [3] was “does not cleave”.

With “Aβ40 oligomers: oligomeric aggregation state of Aβ40” the “fluorescence intensity of Cu^+ and Cu^2+ DNAzyme” value (SH-SY5Y cells; 10 μM, 24 h) was “significantly increased”.

For “Cu2 iE polyT 3IBFQ: inactive enzyme strand (TTTCGCCATCTTCTTTTTTTTATAGTGACT; DNA, 3' {3IABkFQ}, backbone not given here)”, the “background signal of inactive sequence” value ([2]; both fluorophore and quencher labels) was “minimum background signal”.

For `Cc1cc(-c2ccc(S(=O)(=O)O)cc2)c2ccc3c(-c4ccc(S(=O)(=O)O)cc4)cc(C)nc3c2n1` [BCS, bathocuproine disulphonate], the “fluorescence intensity of copper DNAzyme” value (SH-SY5Y cells; 150 μM or 200 μM BCS overnight) was “significant decrease”.

In the case of Amyloid-β (1-40) peptide [Aβ40], the “fluorescence signals of intracellular Cu^+ and Cu^2+ DNAzyme” value (SH-SY5Y cells; pretreated 24 h with monomers, oligomers and fibrils) is reported as “enhanced”.

With “Fe^3+ B12 Original Substrate (2′H) (CTCTATTAGGGAGACTCGCATGCCGC; DNA, backbone not given here)” the “cleavage by the original Fe^3+ B12 DNAzyme” value [3] was “does not cleave”.
